Data on one compound can be found in article PMC10483525, “Synthesis, Structural Investigations, DNA/BSA Interactions, Molecular Docking Studies, and Anticancer Activity of a New 1,4-Disubstituted 1,2,3-Triazole Derivative” (ACS Omega, 2023).

One may read the IC50 as the concentration at which inhibition is half-maximal.

The structures appear in SMILES notation.

The test system of one experiment is Caco-2 cells. The experiment is described as follows: Annexin V/PI double-staining apoptosis assay (flow cytometry). Type of experiment: cell-based, human. As to conditions: 48 h. The protocol:
calculated from graph. All assays were performed in three replicates per concentration level. 11
8. Annexin-V/PI Double-Staining Assay
Caco-2 (5x10^5 per well) were seeded in 6-well culture plates in medium and incubated for 24 h at 37°C. Then cells were either untreated or treated with the compound 3 (7.5, 15, 30 μM) for additional 48 h. The cells were harvested and resuspended in 400 μl of 1× binding buffer containing Annexin V-FITC (5 μl) and PI (5 μl), and cells were incubated for 15 min at RT (25°C) in the dark. The results were evaluated immediately through flow cytometry (BD Biosciences, San Jose, CA, USA) within 1 h using Annexin V-FITC staining kit (BD […]

Another experiment relates to EB + CT-DNA adduct. The experiment is described as follows: EB displacement (competitive fluorescence emission quenching). Type of experiment: binding. The settings on record: EB 5 μM + CT-DNA 25 μM. The protocol: The competitive emission quenching experiment was carried out using a well-known intercalating agent and fluorescent probe for DNA, ethidium bromide (EtBr).[83] The compound in varying concentrations (0–150) was added to the [EB (5 μM) + CT-DNA (25 μM)] adduct. The excitation wavelength was fixed to 510 nm, and the emission spectra were recorded (λem = 500–700 nm). The quenching efficiency of the compound was analyzed using the Stern–Volmer and Scatchard equations, and the Stern–Volmer (quenching) constant, Ksv, the bimolecular quenching rate constant, kq, binding constant, Kbin, and the number of binding sites per nucleotide, n, were calculated.[84]
Absorption spectral studies […]
sufficiently free of protein. The DNA concentration per nucleotide was determined by […]
sample solutions to eliminate the absorbance of CT-DNA. […]
mixture was allowed to incubate for 5 minutes before the absorption spectrum was recorded.
The intrinsic binding constant Kb of compound was calculated by using Wolfe-Shimmer […]
Fluorescence spectral studies
The fluorescence quenching experiments were performed for additional support for binding of […]
EB+CT-DNA solution. The fluorescence spectra of 200 μL/well solutions in a 96-well plate
were recorded with 510 nm excitation and the emission spectra of constant [EB+CT-DNA] with
varying the compound concentration were recorded (λ em =500–700). […]

The test system of another experiment is HEK-293. The experiment is described as follows: MTT assay. Type of experiment: cell-based, human. The settings on record: Homo sapiens, HEK293. The protocol:
(§1) Human cancer cell lines (MDA-MB-231, LNCaP, Caco-2) and a human healthy cell line (HEK-293) were obtained from the European Collection of Cell Cultures. The cells were incubated in a humidified incubator (37 °C, 5% CO2) and cultured under standard conditions in Dulbecco’s modified Eagle medium (DMEM), 10% heat-inactivated fetal bovine serum, 100 U mL^–1 penicillin, 100 U mL^–1 streptomycin, and 4 mM L-glutamine. […] A cell culture medium was used to make further dilutions, while keeping the equivalent of DMF below 0.5% of the total volume.[94] […]
(§2) 7. Cell Viability Inhibition Assay
(§3) MDA-MB-231, LNCaP, Caco-2 and HEK-293 cells (5x10^3 per well) seeded in 96-well plates to assess cell viability by the 3-[4,5-dimethylthiazol-2-yl]-2,5-diphenyltetrazolium bromide (MTT) assay for 24 h at 37°C. Then cells were treated with compound 3 at different concentrations (3-100 µM) at 100μl/well. In parallel, the traditional anticancer agent cisplatin and etoposid was used as positive controls under identical conditions. After 24, 48 and 72 h incubation, 5 mg/ml MTT solution (20 μl/well) was added and cultured for another 4 h. Then, the supernatant was discarded and dimethyl sulfoxide was added (100 μl/well). The absorbance (A) was measured spectrophotometrically at 540 nm by a Microplate Reader (SpectraMax i3x).
(§4) A graph was plotted between the concentrations of the extract versus the percent viability. The […]
(§5) calculated from graph. All assays were performed in three replicates per concentration level. 11 […]
For orientation: Tetrazolium assays rely on reduction of a dye to a coloured formazan, in cell work by metabolically active cells.

The subject of another experiment is MDA-MB-231. The experiment is described as follows: MTT assay. Type of experiment: cell-based, human. The settings on record: for IC50: Homo sapiens. The protocol: as §1, §2, §3, §4, §5
The next experiment deals with LNCaP. The experiment is described as follows: MTT assay. As to conditions: for IC50: Homo sapiens, LNCaP. Type of experiment: cell-based, human. The protocol: as §1, §2, §3, §4, §5
The mark [1] stands for this setting: 48 h, SI = IC50 on normal cells/IC50 on cancer cells.

In the case of `O=Cc1ccc(OCc2cn(-c3ccc(Cl)c(Cl)c3)nn2)cc1O` [Compound 3, 4-((1-(3,4-Dichlorophenyl)-1H-1,2,3-triazol-4-yl)methoxy)-2-hydroxybenzaldehyde], the “percentage of apoptosis (early + late)” value turned out to be 46.09% with Caco-2 cells (Caco-2, 7.5 μM); 57.77% in the experiment on Caco-2 cells (Caco-2, 15 μM); 70.25% with Caco-2 cells (Caco-2, 30 μM). Further, the “Ksv (Stern–Volmer quenching constant)” value with EB + CT-DNA adduct (compound 0–150 μM, λex 510 nm, emission 602 nm) was 4.13 × 10^3 M^–1. Besides, the “Kbin (binding constant)” value in the experiment on EB + CT-DNA adduct (Scatchard equation) is given as 3.45 × 10^4 M^–1. The IC50 in the experiment with HEK-293 (HEK-293, 24 h) came to 43.95 ± 0.2 µM; in the experiment on HEK-293 (HEK-293, 48 h), 24.44 ± 0.13 µM; with HEK-293 (HEK-293, 72 h), 17.09 ± 0.08 µM; with MDA-MB-231 (MDA-MB-231, 24 h), 65.03 ± 0.31 µM; in the experiment on MDA-MB-231 (MDA-MB-231, 48 h), 10.64 ± 0.03 µM; in the experiment with MDA-MB-231 (MDA-MB-231, 72 h) it was 8.39 ± 0.04 µM. In addition, the IC50 in the experiment with LNCaP (24 h) stood at 44.82 ± 0.09 µM; in the experiment on LNCaP (48 h), 17.1 ± 0.26 µM; in the experiment on LNCaP (72 h), 10.05 ± 0.03 µM. In the experiment with MDA-MB-231 (setting [1]), this compound had an SI HEK-293/MDA-MB-231 of 2.3. The SI HEK-293/LNCap in the experiment with LNCaP (setting [1]) was determined as 1.43. The “SI, times higher than cisplatin” value in the experiment with LNCaP (LNCap cells) worked out at 8 times.
